Numbers after ± are expanded uncertainties.
Assays:
[1] = refractive index (Na D-line) (dimensionless); conditions: 101.3 kPa, Liquid, Standard Abbe refractometry
[2] = 101.3 kPa, Liquid; for speed of sound: Frequency=3 MHz, Sing-around technique in a fixed-path interferometer; for mass density: Vibrating tube method
[3] = xn = mol fraction of the nth substance listed; conditions: 101.3 kPa, Liquid, x1 = 1; for speed of sound: Frequency=3 MHz, Sing-around technique in a fixed-path interferometer; for mass density: Vibrating tube method
[4] = refractive index (Na D-line) (dimensionless); xn = mol fraction of the nth substance listed; conditions: 101.3 kPa, Liquid, Standard Abbe refractometry, x1 = 1

Compound	refractive index ([1]; 298.15 K)	refractive index ([1]; 308.15 K)	refractive index ([1]; 318.15 K)	refractive index ([1]; 328.15 K)	speed of sound ([2]; 298.15 K) [m/s]	mass density ([2]; 298.15 K) [kg/m3]	speed of sound ([2]; 308.15 K) [m/s]	mass density ([2]; 308.15 K) [kg/m3]	speed of sound ([2]; 318.15 K) [m/s]	mass density ([2]; 318.15 K) [kg/m3]	speed of sound ([2]; 328.15 K) [m/s]	mass density ([2]; 328.15 K) [kg/m3]	further results
CCn1cc[n+](C)c1.F[B-](F)(F)F [1-ethyl-3-methylimidazolium tetrafluoroborate]	1.4103 ± 0.0004	1.4077 ± 0.0004	1.4051 ± 0.0004	1.4023 ± 0.0004	1622.9 ± 1.6	1277.6 ± 2	1599.5 ± 1.6	1269.9 ± 2	1576.5 ± 1.6	1262.1 ± 2	1553.8 ± 1.6	1254.6 ± 2	
COCCO [2-methoxyethan-1-ol]	1.4003 ± 0.0004	1.3961 ± 0.0004	1.3917 ± 0.0004	1.3876 ± 0.0004	1345.8 ± 1.5	960.9 ± 2	1311.3 ± 1.5	951.7 ± 2	1276.4 ± 1.5	942.7 ± 2	1241.9 ± 1.5	933.4 ± 2	
CCn1cc[n+](C)c1.F[B-](F)(F)F [1-ethyl-3-methylimidazolium tetrafluoroborate] + COCCO													speed of sound ([3]; 298.15 K): 1622.9 ± 1.6 m/s; mass density ([3]; 298.15 K): 1277.6 ± 2 kg/m3; speed of sound ([3]; 308.15 K): 1599.5 ± 1.6 m/s; mass density ([3]; 308.15 K): 1269.9 ± 2 kg/m3; speed of sound ([3]; 318.15 K): 1576.5 ± 1.6 m/s; mass density ([3]; 318.15 K): 1262.1 ± 2 kg/m3; speed of sound ([3]; 328.15 K): 1553.8 ± 1.6 m/s; mass density ([3]; 328.15 K): 1254.6 ± 2 kg/m3; refractive index ([4]; 298.15 K): 1.4103 ± 0.0004; refractive index ([4]; 308.15 K): 1.4077 ± 0.0004; refractive index ([4]; 318.15 K): 1.4051 ± 0.0004; refractive index ([4]; 328.15 K): 1.4023 ± 0.0004
